Assay results as given in US7994182B2 (Pecsi Tudomanyegyetem, priority 2003, dated 2011).
Like-named read-outs stand apart in the source and are kept apart here. Blank lines part the entries; values can stand above or below the compound they belong to.

What was measured:
[1] = test system: WRL-68 human liver cell line; assay: Protecting effect against hydrogen peroxide induced cell death in WRL-68 cells (MTT cell survival); format: cell-based; settings: 3 hours; for IC50: read-out: IC50: concentration where the hydrogen peroxide induced cell death was inhibited by 50%; for Emax: read-out: Maximum protection
Description: The protecting effect of 4-quinazolinone derivatives against cell death caused by hydrogen peroxide in WRL-68 human liver cell line.
The human WRL-68 cell line was obtained from American Type Culture Collection (Rockville, Md.). The one layer thick cell lines were cultured in Dulbecco's modified. Eagle medium containing 1% antibiotic-antimycotic solution and 10% fetal calf serum under humid 37° C. air containing 5% CO2. The cells were separated every three days.
The cells were transformed to a 96-well plate with 2.5×10^4 cells/well initial concentration and were cultured overnight in humid 37° C. air containing 5% CO2. The following day 0.3 mM hydrogen peroxide was added to the medium either by itself or in the presence of one of the protecting agents. Three hours later the medium was removed and 0.5% water-soluble mitochondria stain, 3-(4,5-dimethylthiazol-2-yl)-2;5-diphenyl-tetrazolium bromide (MTT^+) was added to the cells. […] The optical density was determined at 550 nm by Anthos Labtech 2010 ELISA Reader (Wien, Austria). In every experiment at least 6 parallel samples were treated and the experiments were repeated three times. Table 1 presents the concentrations (given in μM) where the hydrogen peroxide induced cell death was inhibited by 50%.

[2] = molecular target: T1, poly(ADP-ribose) polymerase enzyme isolated from rat liver (Rattus norvegicus, UniProt P27008); assay: In vitro inhibitory effect on PARP enzyme ([3H]-NAD+ incorporation); format: biochemical; settings: 1 mM [3H]-NAD+, 15 minutes incubation
T1 construct: The poly(ADP-ribose) polymerase enzyme was isolated from rat liver as described earlier; from tissue; host or cells: rat liver
T1 sequence (P27008 whole entry): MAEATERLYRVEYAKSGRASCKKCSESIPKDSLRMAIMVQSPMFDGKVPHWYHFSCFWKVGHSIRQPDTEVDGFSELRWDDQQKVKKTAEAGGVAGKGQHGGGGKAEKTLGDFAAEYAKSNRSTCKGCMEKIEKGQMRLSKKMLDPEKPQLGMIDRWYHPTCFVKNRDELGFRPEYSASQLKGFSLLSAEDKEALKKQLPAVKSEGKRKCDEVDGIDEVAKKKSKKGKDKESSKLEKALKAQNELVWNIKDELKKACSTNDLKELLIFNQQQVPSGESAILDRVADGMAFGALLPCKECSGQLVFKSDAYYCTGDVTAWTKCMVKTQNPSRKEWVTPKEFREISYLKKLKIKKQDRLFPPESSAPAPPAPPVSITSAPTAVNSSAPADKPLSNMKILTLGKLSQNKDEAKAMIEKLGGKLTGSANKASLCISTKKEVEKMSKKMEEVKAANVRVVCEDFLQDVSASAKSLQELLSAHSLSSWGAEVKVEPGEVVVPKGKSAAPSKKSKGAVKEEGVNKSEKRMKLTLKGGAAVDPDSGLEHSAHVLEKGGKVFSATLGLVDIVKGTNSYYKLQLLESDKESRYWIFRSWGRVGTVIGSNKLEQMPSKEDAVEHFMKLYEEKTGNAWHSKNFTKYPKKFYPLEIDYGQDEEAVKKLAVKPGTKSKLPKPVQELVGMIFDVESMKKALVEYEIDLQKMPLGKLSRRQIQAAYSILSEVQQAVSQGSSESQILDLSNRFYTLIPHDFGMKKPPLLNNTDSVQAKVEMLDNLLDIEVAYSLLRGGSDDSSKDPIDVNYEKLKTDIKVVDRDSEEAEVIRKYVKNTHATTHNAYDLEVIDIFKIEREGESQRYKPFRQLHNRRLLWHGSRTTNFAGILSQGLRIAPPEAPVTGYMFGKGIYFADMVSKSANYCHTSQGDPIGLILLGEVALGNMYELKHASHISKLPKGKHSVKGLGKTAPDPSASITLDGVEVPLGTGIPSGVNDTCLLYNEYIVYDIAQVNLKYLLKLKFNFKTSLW
Description: The In Vitro Inhibitory Effect of 4-quinazolinone Derivatives on PARP Enzyme
The poly(ADP-ribose) polymerase enzyme was isolated from rat liver as described earlier. The putative inhibitory effect of 4-quinazolinone derivatives was examined in this experiment. The activity of the PARP enzyme was determined in 130 μl solution containing 100 mM Tris-HCl buffer (pH 8.0), 10 mM MgCl2, 10% glycerol, 1.5 mM DTT, 1 mM [Adenin-2,8-^3H]-NAD^+ (4,500 cpm/nmol), 10 μg activated DNA and 10 μg histone. With or without the presence of 4-quinazolinone derivatives, the samples were incubated for 15 minutes, then the reactions were brought to stop by the addition of 8% trichloroacetic acid. After the addition of 0.5 mg albumin the samples were allowed to precipitate for 20 minutes on ice, then the insoluble substances were filtered on a glass filter, collected and washed five times with 5% perchloric acid. The protein-bound radioactivity was measured by LS-200 Beckman scintillation counter, the data is presented in μM in Table 2.

[3] = Homo sapiens, WRL68, 0.3 mM hydrogen peroxide

SMILES: Cc1nc2ccccc2c(=O)[nH]1 [Compound 2, 2-methylquinazolin-4(3H)one, reference compound]
- IC50 [1, 3]: 4 µM
- Emax [1, 3]: 54%

SMILES: O=c1[nH]c(S)nc2ccccc12 [Compound 3, 2-mercaptoquinazolin-4(3H)one, reference compound]
- IC50 [1, 3]: 70 µM
- Emax [1, 3]: 52%

SMILES: Cc1nc2ccccc2c(=O)n1CC1=CC(C)(C)N([O])C1(C)C [Compound 8, 3-[(1-Oxyl-2,2,5,5-tetramethyl-2,5-dihydro-1H-pyrrol-3-yl)methyl]-2-methylqunazolin-4(3H)-one]
- Maximum protection ([1]; 0.3 mM hydrogen peroxide): 0%
- IC50 ([1]; 0.3 mM hydrogen peroxide): > 100 µM

SMILES: Cc1nc2ccccc2c(=O)n1CC1=CC(C)(C)NC1(C)C [Compound 9, 3-[(2,2,5,5-Tetramethyl-2,5-dihydro-1H-pyrrol-3-yl)methyl]-2-methylquinazolin-4(3H)-one]
- IC50 [1, 3]: 10 µM
- Emax [1, 3]: 15%

- melting point: 138 to 140 °C
SMILES: CC1(C)C=C(CSc2nc3ccccc3c(=O)[nH]2)C(C)(C)N1O [Compound 12, 2-{[(1-Oxyl-2,2,5,5-tetramethyl-2,5-dihydro-1H-pyrrol-3-yl)methyl]thio}quinazolin-4(3H)-one]

- melting point: 150 to 151 °C
SMILES: CC1(C)C=C(CSc2nc3ccccc3c(=O)[nH]2)C(C)(C)N1 [Compound 13, 2-{[(2,2,5,5-Tetramethyl-2,5-dihydro-1H-pyrrol-3-yl)methyl]thio}quinazolin-4(3H)-one]

SMILES: CC1(C)C=C(CSC2=Nc3ccccc3C(=O)C2)CC(C)(C)N1 [Compound 15, 2-{[(2,2,6,6-Tetramethyl-1,2,3,6-tetrahydropyridin-4-yl)methyl]thio}quinolin-4(3H)-one]
- IC50 [1, 3]: 10 µM
- Emax [1, 3]: 61%

SMILES: CN(C)CCSc1nc2ccccc2c(=O)[nH]1 [Compound 17a]
- IC50 [1, 3]: 0.15 µM
- Emax [1, 3]: 68%
- IC50 [2]: 2 µM

- IC50 [2]: 6 µM
SMILES: CN(C)CCCSc1nc2ccccc2c(=O)[nH]1 [Compound 17b, 2-{[3(Dimethylamino)propyl]thio}quinazolin-4(3H)-one]
- IC50 [1, 3]: 4.8 µM
- Emax [1, 3]: 65%

- IC50 [2]: 2.6 µM
SMILES: O=c1[nH]c(SCCN2CCCCC2)nc2ccccc12 [Compound 17c, 2-[(2-Piperidin-1-ylethyl)thio]quinazolin-4(3H)-one]
- IC50 [1, 3]: 0.8 µM
- Emax [1, 3]: 62%

- IC50 [2]: 1.6 µM
SMILES: CC1(C)CCCC(C)(C)N1CCSc1nc2ccccc2c(=O)[nH]1 [Compound 17d, 2-{[2-(2,2,6,6-Tetramethylpiperidin-1-yl)ethyl]thio}quinazolin-4(3H)-one]
- IC50 [1, 3]: 0.1 µM
- Emax [1, 3]: 69.6%

SMILES: CC1(C)C=C(c2nc3ccccc3c(=O)[nH]2)C(C)(C)N1O [Compound 21, 2-(1-Oxyl-2,2,5,5-tetramethyl-2,5-dihydro-1H-pyrrol-3-yl)quinazolin-4(3H)-one]
- IC50 [1, 3]: > 100 µM
- Emax [1, 3]: 0%

- melting point: 254 to 256 °C
SMILES: CC1(C)C=C(c2nc3ccccc3c(=O)[nH]2)C(C)(C)N1 [Compound 22, 2-(2,2,5,5-Tetramethyl-2,5 dihydro-1H-pyrrol-3-yl)quinazolin-4(3H)-one]

SMILES: CC1(C)C=C(c2nc3ccccc3c(=O)[nH]2)CC(C)(C)N1O [Compound 23, 2-(1-Oxyl-2,2,6,6-tetramethyl-1,2,3,6-tetrahydropyridin-4-yl)quinazolin-4(3H)-one]
- IC50 [1, 3]: 13 µM
- Emax [1, 3]: 50%

SMILES: CC1(C)C=C(c2nc3ccccc3c(=O)[nH]2)CC(C)(C)N1 [Compound 24, 2-(2,2,6,6-Tetramethyl-1,2,3,6-tetrahydropyridin-4-yl)quinazolin-4(3H)-one]
- IC50 [1, 3]: 12 µM
- Emax [1, 3]: 50%
